Assay results from patent US20260285855A1, “HETEROARYL DERIVATIVES AS DDRS INHIBITORS” (CHIESI FARMACEUTICI S.P.A., priority 2023, published 2026).

Key:
DDR2 = target: T1, DDR2 (Homo sapiens, UniProt Q16832); experiment: LanthaScreen Europium Kinase Binding assay, DDR2; settings: 5 nM DDR2, 10 nM Kinase Tracer 178, 1 h at rt; Ki from IC50 by Cheng-Prusoff; read-out: Ki DDR2
T1 construct: purchased Life Technologies
T1 sequence (Q16832 22-855): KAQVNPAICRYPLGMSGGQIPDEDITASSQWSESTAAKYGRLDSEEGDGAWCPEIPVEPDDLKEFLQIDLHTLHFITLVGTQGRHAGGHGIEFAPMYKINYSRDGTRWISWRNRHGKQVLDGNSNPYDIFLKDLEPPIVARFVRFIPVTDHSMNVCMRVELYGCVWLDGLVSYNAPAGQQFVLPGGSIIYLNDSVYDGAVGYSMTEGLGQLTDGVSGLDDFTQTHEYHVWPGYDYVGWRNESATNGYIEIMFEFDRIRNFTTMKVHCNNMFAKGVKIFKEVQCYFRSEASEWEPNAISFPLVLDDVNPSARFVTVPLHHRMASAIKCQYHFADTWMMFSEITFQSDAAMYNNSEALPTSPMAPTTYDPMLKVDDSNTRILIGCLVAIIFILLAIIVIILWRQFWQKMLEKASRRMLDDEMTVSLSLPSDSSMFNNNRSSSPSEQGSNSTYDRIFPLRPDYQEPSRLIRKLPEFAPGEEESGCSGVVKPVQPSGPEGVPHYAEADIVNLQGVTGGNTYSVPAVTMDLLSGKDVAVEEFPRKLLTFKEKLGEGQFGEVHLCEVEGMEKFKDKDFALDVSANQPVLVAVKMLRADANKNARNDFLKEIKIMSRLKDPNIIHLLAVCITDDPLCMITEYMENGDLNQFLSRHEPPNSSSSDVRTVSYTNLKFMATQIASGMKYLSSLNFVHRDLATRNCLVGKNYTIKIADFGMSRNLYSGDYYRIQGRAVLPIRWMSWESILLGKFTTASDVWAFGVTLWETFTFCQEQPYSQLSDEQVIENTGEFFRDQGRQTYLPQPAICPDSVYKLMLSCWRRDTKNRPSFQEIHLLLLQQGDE
Procedure: (§1) DDR1 and DDR2 binding assays were performed using Life Technologies LanthaScreen™ Europium Kinase Binding assay. […] IC50 values were determined in GraphPad Prism 7.0 software, using 4 parameter model: log (inhibitor) vs. response. IC50 values were converted in Ki using the Cheng-Prusoff equation (Ki-IC50/(1+ [Tracer]/Kd).

DDR1 = target: T2, DDR1 (Homo sapiens, UniProt Q08345); experiment: LanthaScreen Europium Kinase Binding assay, DDR1; settings: 5 nM DDR1, 20 nM Kinase Tracer 178, 1 h at rt; Ki from IC50 by Cheng-Prusoff; read-out: Ki DDR1
T2 construct: purchased Carna Biosciences
T2 sequence (Q08345 19-913): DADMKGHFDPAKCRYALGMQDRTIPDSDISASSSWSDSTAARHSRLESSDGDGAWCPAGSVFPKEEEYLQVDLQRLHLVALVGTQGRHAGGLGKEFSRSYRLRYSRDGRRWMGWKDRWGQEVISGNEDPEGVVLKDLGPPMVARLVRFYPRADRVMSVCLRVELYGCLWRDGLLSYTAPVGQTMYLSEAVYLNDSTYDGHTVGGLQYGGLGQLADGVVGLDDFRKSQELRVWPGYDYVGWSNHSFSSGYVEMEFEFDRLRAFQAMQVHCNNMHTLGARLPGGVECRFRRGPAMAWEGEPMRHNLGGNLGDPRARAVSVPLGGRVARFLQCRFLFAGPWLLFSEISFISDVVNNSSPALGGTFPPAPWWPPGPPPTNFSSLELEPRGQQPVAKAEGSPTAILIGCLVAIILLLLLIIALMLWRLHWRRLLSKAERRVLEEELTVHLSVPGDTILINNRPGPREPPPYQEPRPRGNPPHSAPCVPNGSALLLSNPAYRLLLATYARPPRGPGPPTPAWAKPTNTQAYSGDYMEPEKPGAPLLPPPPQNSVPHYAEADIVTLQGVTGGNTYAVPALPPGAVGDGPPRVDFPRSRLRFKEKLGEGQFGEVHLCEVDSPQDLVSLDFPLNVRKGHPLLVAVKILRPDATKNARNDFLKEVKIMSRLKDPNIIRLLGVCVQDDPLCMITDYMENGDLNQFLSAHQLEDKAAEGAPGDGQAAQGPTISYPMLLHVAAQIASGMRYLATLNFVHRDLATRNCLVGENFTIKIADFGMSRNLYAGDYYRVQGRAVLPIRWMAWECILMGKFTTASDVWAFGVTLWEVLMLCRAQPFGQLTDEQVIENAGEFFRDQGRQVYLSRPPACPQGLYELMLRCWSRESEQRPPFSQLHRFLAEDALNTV
Procedure: as §1

Structure (SMILES)	Ki (DDR2)	Ki (DDR1)
CN(C(=O)Nc1cncc(C(F)(F)F)c1)C1CC2(C1)CN(C(=O)c1cnn3cc(-c4cncnc4)ccc13)C2 [Example 245, 1-methyl-1-(2-(6-(pyrimidin-5-yl)pyrazolo[1,5-a]pyridine-3-carbonyl)-2-azaspiro[3.3]heptan-6-yl)-3-(5-(trifluoromethyl)pyridin-3-yl)urea]	5 to 25 nM	< 5 nM
Cc1ncc(-c2ccc3c(C(=O)N4CC5(CC(N(C)C(=O)Nc6cncc(C(F)(F)F)c6)C5)C4)cnn3c2)cn1 [Example 246, 1-methyl-1-(2-(6-(2-methylpyrimidin-5-yl)pyrazolo[1,5-a]pyridine-3-carbonyl)-2-azaspiro[3.3]heptan-6-yl)-3-(5-(trifluoromethyl)pyridin-3-yl)urea]	25 to 100 nM	5 to 25 nM
CN(C(=O)Nc1cccc(C(F)(F)F)c1)C1CC2(C1)CN(C(=O)c1ncnc3[nH]ccc13)C2 [Example 247, 1-(2-(7H-pyrrolo[2,3-d]pyrimidine-4-carbonyl)-2-azaspiro[3.3]heptan-6-yl)-1-methyl-3-(3-(trifluoromethyl)phenyl)urea]	5 to 25 nM	< 5 nM
CN(C(=O)Nc1cccc(C(F)(F)F)c1)C1CC2(C1)CN(C(=O)c1ccnc3[nH]ccc13)C2 [Example 248, 1-(2-(1H-pyrrolo[2,3-b]pyridine-4-carbonyl)-2-azaspiro[3.3]heptan-6-yl)-1-methyl-3-(3-(trifluoromethyl)phenyl)urea]	5 to 25 nM	< 5 nM
CN(C(=O)Nc1cncc(C(F)(F)F)c1)C1CC2(C1)CN(C(=O)c1cnn3cc(-c4ccncc4)ccc13)C2 [Example 249, 1-methyl-1-(2-(6-(pyridin-4-yl)pyrazolo[1,5-a]pyridine-3-carbonyl)-2-azaspiro[3.3]heptan-6-yl)-3-(5-(trifluoromethyl)pyridin-3-yl)urea]	5 to 25 nM	< 5 nM
COc1ccc2c(C(=O)N3CC4(CC(N(C)C(=O)Nc5cncc(C(F)(F)F)c5)C4)C3)cnn2c1 [Example 250, 1-(2-(6-methoxypyrazolo[1,5-a]pyridine-3-carbonyl)-2-azaspiro[3.3]heptan-6-yl)-1-methyl-3-(5-(trifluoromethyl)pyridin-3-yl)urea]	25 to 100 nM	< 5 nM
COc1ccn2ncc(C(=O)N3CC4(CC(N(C)C(=O)Nc5cncc(C(F)(F)F)c5)C4)C3)c2c1 [Example 251, 1-(2-(5-methoxypyrazolo[1,5-a]pyridine-3-carbonyl)-2-azaspiro[3.3]heptan-6-yl)-1-methyl-3-(5-(trifluoromethyl)pyridin-3-yl)urea]	5 to 25 nM	< 5 nM
CN(C(=O)Nc1cncc(C(F)(F)F)c1)C1CC2(C1)CN(C(=O)c1cnn3ccc(N4CCC(F)(F)C4)cc13)C2 [Example 252, 1-(2-(5-(3,3-difluoropyrrolidin-1-yl)pyrazolo[1,5-a]pyridine-3-carbonyl)-2-azaspiro[3.3]heptan-6-yl)-1-methyl-3-(5-(trifluoromethyl)pyridin-3-yl)urea]	5 to 25 nM	< 5 nM
COc1ccc(-c2ccc3c(C(=O)N4CC5(CC(N(C)C(=O)Nc6cncc(C(F)(F)F)c6)C5)C4)cnn3c2)cn1 [Example 253, 1-(2-(6-(6-methoxypyridin-3-yl)pyrazolo[1,5-a]pyridine-3-carbonyl)-2-azaspiro[3.3]heptan-6-yl)-1-methyl-3-(5-(trifluoromethyl)pyridin-3-yl)urea]	5 to 25 nM	< 5 nM
CN(C(=O)Nc1cc(I)ccn1)C1CC2(C1)CN(C(=O)c1cnn3ccn(C)c13)C2 [Example 254, 3-(4-iodopyridin-2-yl)-1-methyl-1-(2-(1-methyl-1H-imidazo[1,2-b]pyrazole-7-carbonyl)-2-azaspiro[3.3]heptan-6-yl)urea]	5 to 25 nM	< 5 nM

Second part, the compound after the results:

Ki (DDR2)	Ki (DDR1)	Structure (SMILES)
5 to 25 nM	< 5 nM	CN(C(=O)Nc1cc(C(F)F)ccn1)C1CC2(C1)CN(C(=O)c1cnn3ccsc13)C2 [Example 255, 3-(4-(difluoromethyl)pyridin-2-yl)-1-methyl-1-(2-(pyrazolo[5,1-b]thiazole-7-carbonyl)-2-azaspiro[3.3]heptan-6-yl)urea]
5 to 25 nM	< 5 nM	COc1cc(C(F)(F)F)cc(NC(=O)N(C)C2CC3(C2)CN(C(=O)c2cnn4ccn(C)c24)C3)n1 [Example 256, 3-(6-methoxy-4-(trifluoromethyl)pyridin-2-yl)-1-methyl-1-(2-(1-methyl-1H-imidazo[1,2-b]pyrazole-7-carbonyl)-2-azaspiro[3.3]heptan-6-yl)urea]
5 to 25 nM	< 5 nM	CN(C(=O)Nc1cc(C(F)(F)F)cc(C(F)(F)F)c1)C1CC2(C1)CN(C(=O)c1cnn3ccn(C)c13)C2 [Example 257, 3-(3,5-bis(trifluoromethyl)phenyl)-1-methyl-1-(2-(1-methyl-1H-imidazo[1,2-b]pyrazole-7-carbonyl)-2-azaspiro[3.3]heptan-6-yl)urea]
5 to 25 nM	< 5 nM	Cc1nn(C)cc1-c1ccc2c(C(=O)N3CC4(CC(N(C)C(=O)Nc5cncc(C(F)(F)F)c5)C4)C3)cnn2c1 [Example 258, 1-(2-(6-(1,3-dimethyl-1H-pyrazol-4-yl)pyrazolo[1,5-a]pyridine-3-carbonyl)-2-azaspiro[3.3]heptan-6-yl)-1-methyl-3-(5-(trifluoromethyl)pyridin-3-yl)urea]
25 to 100 nM	< 5 nM	CN(C(=O)Nc1cc(C(F)(F)F)cnn1)C1CC2(C1)CN(C(=O)c1cnn3ccccc13)C2 [Example 259, 1-methyl-1-(2-(pyrazolo[1,5-a]pyridine-3-carbonyl)-2-azaspiro[3.3]heptan-6-yl)-3-(5-(trifluoromethyl)pyridazin-3-yl)urea]
5 to 25 nM	< 5 nM	COc1ccc(C(F)(F)F)cc1NC(=O)N(C)C1CC2(C1)CN(C(=O)c1ncnc3[nH]ccc13)C2 [Example 260, 1-(2-(7H-pyrrolo[2,3-d]pyrimidine-4-carbonyl)-2-azaspiro[3.3]heptan-6-yl)-3-(2-methoxy-5-(trifluoromethyl)phenyl)-1-methylurea]
5 to 25 nM	< 5 nM	Cc1c(-c2ccc3c(C(=O)N4CC5(CC(N(C)C(=O)Nc6cncc(C(F)(F)F)c6)C5)C4)cnn3c2)cnn1C [Example 261, 1-(2-(6-(1,5-dimethyl-1H-pyrazol-4-yl)pyrazolo[1,5-a]pyridine-3-carbonyl)-2-azaspiro[3.3]heptan-6-yl)-1-methyl-3-(5-(trifluoromethyl)pyridin-3-yl)urea]
5 to 25 nM	< 5 nM	COc1ncc(C(F)(F)F)cc1NC(=O)NC1CC2(C1)CN(C(=O)c1cnn3ccsc13)C2 [Example 262, 1-(2-methoxy-5-(trifluoromethyl)pyridin-3-yl)-3-(2-(pyrazolo[5,1-b]thiazole-7-carbonyl)-2-azaspiro[3.3]heptan-6-yl)urea]
5 to 25 nM	< 5 nM	CN(C(=O)Nc1cc(C(F)(F)F)ccn1)C1CC2(C1)CN(C(=O)c1ncnc3ccsc13)C2 [Example 263, 1-methyl-1-(2-(thieno[3,2-d]pyrimidine-4-carbonyl)-2-azaspiro[3.3]heptan-6-yl)-3-(4-(trifluoromethyl)pyridin-2-yl)urea]
5 to 25 nM	< 5 nM	CCc1ccc(C(F)(F)F)cc1NC(=O)N(C)C1CC2(C1)CN(C(=O)c1cnn3ccn(C)c13)C2 [Example 264, 3-(2-ethyl-5-(trifluoromethyl)phenyl)-1-methyl-1-(2-(1-methyl-1H-imidazo[1,2-b]pyrazole-7-carbonyl)-2-azaspiro[3.3]heptan-6-yl)urea]
< 5 nM	< 5 nM	Cc1c(F)cc(NC(=O)N(C)C2CC3(C2)CN(C(=O)c2cnn4ccn(C)c24)C3)cc1C(F)(F)F [Example 265, 3-(3-fluoro-4-methyl-5-(trifluoromethyl)phenyl)-1-methyl-1-(2-(1-methyl-1H-imidazo[1,2-b]pyrazole-7-carbonyl)-2-azaspiro[3.3]heptan-6-yl)urea]
5 to 25 nM	< 5 nM	CN(C(=O)Nc1cncc(C(F)(F)C(F)(F)F)c1)C1CC2(C1)CN(C(=O)c1cnn3ccn(C)c13)C2 [Example 266, 1-methyl-1-(2-(1-methyl-1H-imidazo[1,2-b]pyrazole-7-carbonyl)-2-azaspiro[3.3]heptan-6-yl)-3-(5-(perfluoroethyl)pyridin-3-yl)urea]
< 5 nM	< 5 nM	CN(C(=O)Nc1cc(C(F)(F)F)cc(Cl)n1)C1CC2(C1)CN(C(=O)c1cnn3ccn(C)c13)C2 [Example 267, 3-(6-chloro-4-(trifluoromethyl)pyridin-2-yl)-1-methyl-1-(2-(1-methyl-1H-imidazo[1,2-b]pyrazole-7-carbonyl)-2-azaspiro[3.3]heptan-6-yl)urea]
